For 21 compounds, T/C results are on record in PubChem BioAssay AID256 (DTP/NCI, 2004).

Several values for one entry are separate records, joined by “and”; a condition that tells them apart may be missing. Equal entries are not always repeated. Inconclusive results and toxic doses are left out.

For the test, the system named is CD2F1 mice, L1210 leukemia ip, survival T/C. Description: NCI In Vivo Anticancer Drug Screen. Data for tumor model L1210 Leukemia (intraperitoneal) in CD2F1 (CDF1) mice. To be noted: higher = longer survival. The method, boiled down: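 Implant tumor; dose compound or vehicle; measure endpoint in both groups; report treated divided by control.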
The mark [1] stands for this setting: endpoint: mean survival time, dose: 12.5 mg/kg/injection, schedule: Q01DX009 (ip), vehicle: saline with Tween-80.
Where [2] appears, read: endpoint: mean survival time, dose: 25.0 mg/kg/injection, schedule: Q01DX009 (ip), vehicle: saline with Tween-80.
Where [3] appears, read: endpoint: mean survival time, dose: 50.0 mg/kg/injection, schedule: Q01DX009 (ip), vehicle: saline with Tween-80.
The mark [4] stands for this setting: endpoint: mean survival time, dose: 100.0 mg/kg/injection, schedule: Q01DX001 (ip), vehicle: saline with Tween-80.
Where [5] appears, read: endpoint: mean survival time, dose: 200.0 mg/kg/injection, schedule: Q01DX001 (ip), vehicle: saline with Tween-80.
Setting [6] is: endpoint: mean survival time, dose: 50.0 mg/kg/injection, schedule: Q01DX001 (ip), vehicle: carboxymethylcellulose (CMC).
Where [7] appears, read: endpoint: mean survival time, dose: 75.0 mg/kg/injection, schedule: Q01DX001 (ip), vehicle: saline.
The mark [8] stands for this setting: endpoint: mean survival time, dose: 100.0 mg/kg/injection, schedule: Q01DX009 (ip), vehicle: saline with Tween-80.
The mark [9] stands for this setting: endpoint: mean survival time, dose: 200.0 mg/kg/injection, schedule: Q01DX009 (ip), vehicle: saline with Tween-80.
Setting [10] is: endpoint: mean survival time, dose: 400.0 mg/kg/injection, schedule: Q01DX009 (ip), vehicle: saline with Tween-80.

On to `COc1ccc2c(c1)CCC1C2=CC(=O)/C1=C\[O-].COc1ccc2c(c1)CCC1C2=CC(=O)/C1=C\[O-].[Cu+2]` (configuration not stated), for which the T/C by setting is: under setting [1], 92 % of control; (endpoint: mean survival time, dose: 12.5 mg/kg/injection, schedule: Q04DX003 (ip), vehicle: saline with Tween-80) 93 % of control; under setting [2], 95 % of control; (endpoint: mean survival time, dose: 25.0 mg/kg/injection, schedule: Q04DX003 (ip), vehicle: saline with Tween-80) 93 % of control; under setting [3], 94 % of control; (endpoint: mean survival time, dose: 50.0 mg/kg/injection, schedule: Q04DX003 (ip), vehicle: saline with Tween-80) 96 % of control.
Take `c1ccc(NC2=NCCO2)nc1`: the T/C by setting is: under setting [4], 101 % of control; under setting [5], 100 % of control.
On to `Nc1nc2ncn(O)c2c(=O)[nH]1`, for which the T/C is 176 % of control (endpoint: median survival time, dose: 3.12 mg/kg/injection, schedule: Q01DX009 (ip), vehicle: other); 195 % of control (endpoint: median survival time, dose: 6.25 mg/kg/injection, schedule: Q01DX009 (ip), vehicle: other); 168 % of control and 172 % of control (endpoint: median survival time, dose: 6.25 mg/kg/injection, schedule: Q01DX009 (ip), vehicle: water); 162 % of control (endpoint: median survival time, dose: 12.5 mg/kg/injection, schedule: Q01DX009 (ip), vehicle: other); 168 % of control and 234 % of control (endpoint: median survival time, dose: 12.5 mg/kg/injection, schedule: Q01DX009 (ip), vehicle: water); 101 % of control (endpoint: median survival time, dose: 25.0 mg/kg/injection, schedule: Q01DX009 (ip), vehicle: other). For the same compound, the T/C (endpoint: median survival time, dose: 25.0 mg/kg/injection, schedule: Q01DX009 (ip), vehicle: water) was 164 % of control.
With `O=C(NCCCl)NC1C(O)C(O)C(O)C(O)C1O` (configuration not stated), the T/C runs as follows: under setting [4], 104 % of control; under setting [5], 98 % of control; (endpoint: mean survival time, dose: 400.0 mg/kg/injection, schedule: Q01DX001 (ip), vehicle: saline with Tween-80) 98 % of control.
`O=C(CCl)c1cc(Cl)c(O)c(Cl)c1`: under setting [6], the T/C is 97 % of control.
For the compound `Cn1nc(CC#N)c2c(N)ncnc21`, the T/C (endpoint: mean survival time, dose: 12.5 mg/kg/injection, schedule: Q01DX005 (ip), vehicle: water) was 96 % of control; the T/C (endpoint: mean survival time, dose: 25.0 mg/kg/injection, schedule: Q01DX005 (ip), vehicle: water) was 93 % of control; the T/C (endpoint: mean survival time, dose: 50.0 mg/kg/injection, schedule: Q01DX005 (ip), vehicle: water) was 92 % of control; the T/C (endpoint: mean survival time, dose: 100.0 mg/kg/injection, schedule: Q01DX005 (ip), vehicle: water) was 88 % of control; the T/C (endpoint: mean survival time, dose: 200.0 mg/kg/injection, schedule: Q01DX005 (ip), vehicle: water) is 91 % of control.
For `CN(C)S(=O)(=O)c1ccccc1C(=O)O`, the T/C runs as follows: (endpoint: mean survival time, dose: 100.0 mg/kg/injection, schedule: Q04DX003 (ip), vehicle: saline sonified) 100 % of control; (endpoint: mean survival time, dose: 200.0 mg/kg/injection, schedule: Q04DX003 (ip), vehicle: saline sonified) 100 % of control; (endpoint: mean survival time, dose: 400.0 mg/kg/injection, schedule: Q04DX003 (ip), vehicle: saline sonified) 93 % of control.
Consider `FC(F)(F)/C([S-])=C(/[S-])C(F)(F)F.N#[O+].[Mn].[c-]1[c-][c-][cH-][c-]1`, for which the T/C (endpoint: mean survival time, dose: 75.0 mg/kg/injection, schedule: Q01DX001 (ip), vehicle: other) was 103 % of control.
As to `Cn1c(=O)c2c(nc(-c3ccccc3)n2O)n(C)c1=O`, the T/C (endpoint: mean survival time, dose: 12.5 mg/kg/injection, schedule: Q01DX005 (ip), vehicle: other) is 97 % of control; the T/C (endpoint: mean survival time, dose: 25.0 mg/kg/injection, schedule: Q01DX005 (ip), vehicle: other) was 105 % of control; the T/C (endpoint: mean survival time, dose: 50.0 mg/kg/injection, schedule: Q01DX005 (ip), vehicle: other) is 92 % of control; the T/C (endpoint: mean survival time, dose: 100.0 mg/kg/injection, schedule: Q01DX005 (ip), vehicle: other) is 97 % of control.
For `CSc1sc2cc([N+](=O)[O-])ccc2[n+]1C`, under setting [7], the T/C is 103 % of control.
As to `C1CCN(P(N2CCCCC2)N2CCCCC2)CC1`, the T/C was 92 % of control (endpoint: mean survival time, dose: 100.0 mg/kg/injection, schedule: Q04DX002 (ip), vehicle: saline) and 92 % of control (endpoint: mean survival time, dose: 200.0 mg/kg/injection, schedule: Q04DX002 (ip), vehicle: saline).
Regarding `C=CCSc1ncnc2c1c(Br)cn2C1OC(CO)C(O)C1O` (configuration not stated), the T/C is 101 % of control under setting [7]; 107 % of control (endpoint: mean survival time, dose: 150.0 mg/kg/injection, schedule: Q01DX001 (ip), vehicle: saline); 106 % of control (endpoint: mean survival time, dose: 300.0 mg/kg/injection, schedule: Q01DX001 (ip), vehicle: saline).
With `Cc1ccc(S(=O)(=O)NC(=O)OC23COCN2COC3)cc1`, the T/C under setting [1] is 96 % of control and 101 % of control; the T/C under setting [2] was 96 % of control and 102 % of control; the T/C under setting [3] was 97 % of control and 101 % of control; the T/C under setting [8] was 117 % of control and 102 % of control; the T/C under setting [9] is 113 % of control and 108 % of control; the T/C under setting [10] is 113 % of control and 105 % of control.
With `N#Cc1cn(C2CCCCC2)c2ncccc12`, the T/C (endpoint: mean survival time, dose: 100.0 mg/kg/injection, schedule: Q04DX003 (ip), vehicle: saline) is 113 % of control and the T/C (endpoint: mean survival time, dose: 200.0 mg/kg/injection, schedule: Q04DX003 (ip), vehicle: saline) was 97 % of control.
As for `N=C(N)c1ccc(OCCCCOc2ccc(NC(=O)Nc3cc(S(=O)(=O)F)ccc3Cl)cc2)cc1`, the T/C (endpoint: mean survival time, dose: 75.0 mg/kg/injection, schedule: Q01DX001 (ip), vehicle: saline with Tween-80) was 95 % of control; the T/C (endpoint: mean survival time, dose: 150.0 mg/kg/injection, schedule: Q01DX001 (ip), vehicle: saline with Tween-80) is 90 % of control; the T/C (endpoint: mean survival time, dose: 300.0 mg/kg/injection, schedule: Q01DX001 (ip), vehicle: saline with Tween-80) was 95 % of control.
As to `CCCCCCCCCCCCCCCCS(=O)CC(O)COC(=O)c1ccc(C(=O)OCC(O)CS(=O)CCCCCCCCCCCCCCCC)cc1` (configuration not stated), the T/C by setting is: (endpoint: mean survival time, dose: 12.5 mg/kg/injection, schedule: Q01DX009 (ip), vehicle: saline + Tween-80 + alcohol) 96 % of control; (endpoint: mean survival time, dose: 12.5 mg/kg/injection, schedule: Q01DX009 (ip), vehicle: saline + alcohol) 91 % of control; (endpoint: mean survival time, dose: 25.0 mg/kg/injection, schedule: Q01DX009 (ip), vehicle: saline + Tween-80 + alcohol) 88 % of control; (endpoint: mean survival time, dose: 25.0 mg/kg/injection, schedule: Q01DX009 (ip), vehicle: saline + alcohol) 105 % of control; (endpoint: mean survival time, dose: 50.0 mg/kg/injection, schedule: Q01DX009 (ip), vehicle: saline + Tween-80 + alcohol) 90 % of control; (endpoint: mean survival time, dose: 50.0 mg/kg/injection, schedule: Q01DX009 (ip), vehicle: saline + alcohol) 105 % of control. Moreover, the T/C was 107 % of control (endpoint: mean survival time, dose: 100.0 mg/kg/injection, schedule: Q01DX009 (ip), vehicle: saline + Tween-80 + alcohol); 91 % of control (endpoint: mean survival time, dose: 100.0 mg/kg/injection, schedule: Q01DX009 (ip), vehicle: saline + alcohol); 107 % of control (endpoint: mean survival time, dose: 200.0 mg/kg/injection, schedule: Q01DX009 (ip), vehicle: saline + Tween-80 + alcohol); 97 % of control (endpoint: mean survival time, dose: 200.0 mg/kg/injection, schedule: Q01DX009 (ip), vehicle: saline + alcohol); 105 % of control (endpoint: mean survival time, dose: 400.0 mg/kg/injection, schedule: Q01DX009 (ip), vehicle: saline + alcohol).
Consider `CCOC(=O)c1ccc(NCC2=Nc3c(N)nc(N)nc3NC2)cc1`, for which the T/C reads like this: (endpoint: mean survival time, dose: 12.5 mg/kg/injection, schedule: Q01DX001 (ip), vehicle: carboxymethylcellulose (CMC)) 95 % of control; (endpoint: mean survival time, dose: 25.0 mg/kg/injection, schedule: Q01DX001 (ip), vehicle: carboxymethylcellulose (CMC)) 108 % of control; under setting [6], 96 % of control.
On to `N#CCC(C#N)C1C=CCC1` (configuration not stated), for which the T/C runs as follows: (endpoint: mean survival time, dose: 3.13 mg/kg/injection, schedule: Q04DX003 (ip), vehicle: saline) 98 % of control; (endpoint: mean survival time, dose: 6.25 mg/kg/injection, schedule: Q04DX003 (ip), vehicle: saline) 101 % of control.
For `c1ccc(-c2c3ccccc3c(-c3ccccc3)c3c2ccc2ccccc23)cc1`, the T/C (endpoint: mean survival time, dose: 6.25 mg/kg/injection, schedule: Q01DX009 (ip), vehicle: Klucel (hydroxypropylcellulose) (HPC)) is 89 % of control; the T/C (endpoint: mean survival time, dose: 12.5 mg/kg/injection, schedule: Q01DX009 (ip), vehicle: Klucel (hydroxypropylcellulose) (HPC)) is 89 % of control; the T/C (endpoint: mean survival time, dose: 25.0 mg/kg/injection, schedule: Q01DX009 (ip), vehicle: Klucel (hydroxypropylcellulose) (HPC)) was 91 % of control.
Consider `COc1ccc2nc3cc(Cl)ccc3c(NCCC[N+](C)(C)CCCCCCCCCC[N+](C)(C)CCCNc3c4ccc(Cl)cc4nc4ccc(OC)cc34)c2c1`, for which the T/C (endpoint: mean survival time, dose: 6.25 mg/kg/injection, schedule: Q01DX009 (ip), vehicle: saline with Tween-80) was 105 % of control.
For the compound `O=C(CC(=O)Nc1ccc([N+](=O)[O-])cc1)Nc1ccc([N+](=O)[O-])cc1`, the T/C reads like this: under setting [8], 91 % of control; under setting [9], 86 % of control; under setting [10], 89 % of control.
